The IC50 is the midpoint of a concentration-inhibition curve.

Data on 14 compounds can be found in patent US11498928B2, “Macrocyclic spiroethers as Mcl-1 inhibitors” (ASCENTAGE PHARMA (SUZHOU) CO., LTD., priority 2019, dated 2022).

Structures are written as SMILES.

For experiment [1], the target named is T1, Mcl-1 protein (residues 171-323) (Homo sapiens, UniProt Q07820).
T1 construct: Tag-free Mcl-1 protein (residues 171-323) was used in the FP assay
Description: Inhibition of Mcl-1 by fluorescence polarization (FP) competitive binding assay with FAM-Bid tracer. Particulars: 2 nM FAM-Bid, 20 nM Mcl-1, 30 min. Summed up: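 Ten-point compound titrations compete against 2 nM fluorescein-Bid for 20 nM Mcl-1 (171-323, untagged). Incubation 30 min RT in PBS buffer with BGG and Triton, 5% DMSO final. mP reduction fitted by sigmoidal nonlinear regression for IC50.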
(Fluorescence polarisation rises when a labelled molecule tumbles more slowly, as on binding a larger partner.)

A further experiment has as its system OPM-2 cells. Description: Cell viability assay (OPM-2 cells), CCK-8. Type of experiment: cell-based. Particulars: 5% FBS. In short, it runs like this: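 Viability read by CCK-8 absorbance (450 nm, 4 h reagent incubation) after 24 h compound exposure of 20000 OPM-2 cells per well at 37 °C. IC50 fitted by nonlinear regression on vehicle-normalized signal.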
The test system of the next experiment is NCI-H929 cells. Description: Cell viability assay (NCI-H929 cells), CCK-8. It counts as cell-based. Particulars: 5% FBS. Summed up: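 Viability of NCI-H929 cells was measured using the Cell Counting Kit-8. After 24 hrs of compound exposure, 10 μL of CCK-8 solution per well was incubated for 1-4 hours, and absorbance was read at 450 nm on a BioTek Synergy 1MF. Readings were normalized to vehicle (DMSO) cells, and IC50 values were derived by nonlinear regression in GraphPad Prism 6.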

T1 sequence (Q07820 171-323): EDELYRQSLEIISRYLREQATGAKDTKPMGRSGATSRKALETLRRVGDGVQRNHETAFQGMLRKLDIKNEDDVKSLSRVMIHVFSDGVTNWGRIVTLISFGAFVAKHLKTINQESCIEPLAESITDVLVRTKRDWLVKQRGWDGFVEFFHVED

Regarding `CCO[C@@]1(C(=O)N2CCN3CCOC[C@@H]3C2)C2=C[C@@H](C2)[C@H](C)[C@@H](C)S(=O)(=O)NC(=O)c2ccc3c(c2)N(C[C@@H]2CC[C@H]21)C[C@@]1(CCCc2c1ccc(Cl)c2F)CO3` [compound 46, (1S,11′R,12′S,13′R,16′R,16a′R,18a′R,E)-6-chloro-16′-ethoxy-5-fluoro-11′,12′-dimethyl-16′-((S)-octahydropyrazino[2,1-c][1,4]oxazine-8-carbonyl)-3,4,12′,13′,16′,16a′,17′,18′,18a′,19′-decahydro-1′H,2H,3′H,11′H-spiro[naphthalene-1,2′-[5,7]etheno[13,15]methanocyclobuta[i][1,4]oxazepino[3,4-f][1]thia[2,7]diazacyclohexadecin]-8′(9′H)-one 10′,10′-dioxide], the 50% inhibitory concentration (IC50) in experiment [1] turned out to be 13 nM; with OPM-2 cells (Homo sapiens, OPM-2, 24 h), 325 nM; in the experiment on NCI-H929 cells (Homo sapiens, NCI-H929, 24 h), 200 nM.
For `CO[C@@]1(CN2C[C@@H](C)N[C@@H](C)C2)C2=C[C@@H](C2)[C@H](C)[C@@H](C)S(=O)(=O)NC(=O)c2ccc3c(c2)N(C[C@@H]2CC[C@H]21)C[C@@]1(CCCc2c1ccc(Cl)c2F)CO3` [compound 43, (1S,11′R,12′S,13′R,16′R,16a′R,18a′R,E)-6-chloro-16′-(((3S,5R)-3,5-dimethylpiperazin-1-yl)methyl)-5-fluoro-16′-methoxy-11′,12′-dimethyl-3,4,12′,13′,16′,16a′,17′,18′,18a′,19′-decahydro-1′H,2H,3′H,11′H-spiro[naphthalene-1,2′-[5,7]etheno[13,15]methanocyclobuta[i][1,4]oxazepino[3,4-f][1]thia[2,7]diazacyclohexadecin]-8′(9′H)-one 10′,10′-dioxide], in that order: 15 nM, 47 nM and 35 nM.
For `COC1CCN(CCO[C@H]2C3=C[C@@H](C3)[C@H](C)[C@@H](C)S(=O)(=O)NC(=O)c3ccc4c(c3)N(C[C@@H]3CC[C@H]32)C[C@@]2(CCCc3c2ccc(Cl)c3F)CO4)CC1` [compound 75, (1S,11′R,12′S,13′R,16′R,16a′R,18a′R,E)-6-chloro-5-fluoro-16′-(2-(4-methoxypiperidin-1-yl)ethoxy)-11′,12′-dimethyl-3,4,12′,13′,16′,16a′,17′,18′,18a′,19′-decahydro-1′H,2H,3′H,11′H-spiro[naphthalene-1,2′-[5,7]etheno[13,15]methanocyclobuta[i][1,4]oxazepino[3,4-f][1]thia[2,7]diazacyclohexadecin]-8′(9′H)-one 10′,10′-dioxide], in that order: 36 nM, 41 nM and 51 nM.
Taken in the same sequence, the figures for `C[C@@H]1[C@@H](C)S(=O)(=O)NC(=O)c2ccc3c(c2)N(C[C@@H]2CC[C@H]2[C@@H](N2CCOCC2)C2=C[C@H]1C2)C[C@@]1(CCCc2c1ccc(Cl)c2F)CO3` (single isomer, unassigned) [compound 56] were 7.7 nM, 65 nM and 49 nM.
Consider `C[C@@H]1[C@@H](C)S(=O)(=O)NC(=O)c2ccc3c(c2)N(C[C@@H]2CC[C@H]2[C@@H](OCC(=O)N(C)C)C2=C[C@H]1C2)C[C@@]1(CCCc2c1ccc(Cl)c2F)CO3` [compound 64, 2-(((1 S, 11′R,12′S,13′R,16′R,16a′R,18a′R,E)-6-chloro-5-fluoro-11′,12′-dimethyl-10′,10′-dioxido-8′-oxo-3,4,8′,9′,12′,13′,16′,16a′,17′,18′,18a′,19′-dodecahydro-1′H,2H,3′H, 11′H-spiro[naphthalene-1,2′-[5,7]etheno[13,15]methanocyclobuta[i][1,4]oxazepino[3,4-f][1]thia[2,7]diazacyclohexadecin]-16′-yl)oxy)-N,N-dimethylacetamide], for which the IC50 in experiment [1] is 14 nM; in the experiment on OPM-2 cells (Homo sapiens, OPM-2, 24 h) it was 120 nM; in the experiment with NCI-H929 cells (Homo sapiens, NCI-H929, 24 h), 9.4 nM.
Taken in the same sequence, the figures for `CO[C@H]1C2=C[C@@H](C2)[C@H](C)N(C[C@@H]2CCCO2)S(=O)(=O)NC(=O)c2ccc3c(c2)N(C[C@@H]2CC[C@H]21)C[C@@]1(CCCc2cc(Cl)ccc21)CO3` (single isomer, unassigned) [30 (isomer 3)] were 14 nM, 6100 nM and 5200 nM.
For `C[C@@H]1[C@@H](C)S(=O)(=O)NC(=O)c2ccc3c(c2)N(C[C@@H]2CC[C@H]2[C@@H](OCC(=O)O)C2=C[C@H]1C2)C[C@@]1(CCCc2c1ccc(Cl)c2F)CO3` [compound 74, 2-(((1S,11′R,12′S,13′R,16′R,16a′R,18a′R,E)-6-chloro-5-fluoro-11′,12′-dimethyl-10′,10′-dioxido-8′-oxo-3,4,8′,9′,12′,13′,16′,16a′,17′,18′,18a′,19′-dodecahydro-1′H,2H,3′H,11′H-spiro[naphthalene-1,2′-[5,7]etheno[13,15]methanocyclobuta[i][1,4]oxazepino[3,4-f][1]thia[2,7]diazacyclohexadecin]-16′-yl)oxy)acetic acid], in that order: 20 nM, 384 nM and 450 nM.
Taken in the same sequence, the figures for `C[C@@H]1[C@@H](C)S(=O)(=O)NC(=O)c2ccc3c(c2)N(C[C@@H]2CC[C@H]2[C@@H](OCCN(C)C)C2=C[C@H]1C2)C[C@@]1(CCCc2c1ccc(Cl)c2F)CO3` [compound 77, (1S,11′R,12′S,13′R,16′R,16a′R,18a′R,E)-6-chloro-16′-(2-(dimethylamino)ethoxy)-5-fluoro-11′,12′-dimethyl-3,4,12′,13′,16′,16a′,17′,18′,18a′,19′-decahydro-1′H,2H,3′H,1 PH-spiro[naphthalene-1,2′-[5,7]etheno[13,15]methanocyclobuta[i][1,4]oxazepino[3,4-f][1]thia[2,7]diazacyclohexadecin]-8′(9′H)-one 10′,10′-dioxide] were 8.5 nM, 68 nM and 5.3 nM.
Turning to `CO[C@H]1C2=CC(C2)[C@@H](C)[C@H](C)S(=O)(=O)NC(=O)c2ccc3c(c2)N(C[C@@H]2CC[C@H]21)C[C@@]1(CCCc2cc(Cl)ccc21)CO3` (single isomer, unassigned) [12 (Isomer 1)], the IC50 is 4.8 nM in experiment [1]; 17200 nM with OPM-2 cells (Homo sapiens, OPM-2, 24 h); above 10000 nM in the experiment with NCI-H929 cells (24 h).
Take `CO[C@H]1C2=CC(C2)[C@H](C)N(C)S(=O)(=O)NC(=O)c2ccc3c(c2)N(C[C@@H]2CC[C@H]21)C[C@@]1(CCCc2cc(Cl)ccc21)CO3` (single isomer, unassigned) [26 (isomer 2)]: the IC50 in experiment [1] came to 3.3 nM; with OPM-2 cells (24 h), 2240 nM; in the experiment on NCI-H929 cells (24 h), 2260 nM.
On to `CO[C@H]1C2=CC(C2)[C@H](C)[C@@H](C)S(=O)(=O)NC(=O)c2ccc3c(c2)N(C[C@@H]2CC[C@H]21)C[C@@]1(CCCc2c1cc(F)c(Cl)c2F)CO3` (single isomer, unassigned) [Cpd. No. 19], for which the IC50 came to 19 nM in experiment [1]; 802 nM in the experiment on OPM-2 cells (Homo sapiens, OPM-2, 24 h); 670 nM with NCI-H929 cells (Homo sapiens, NCI-H929, 24 h).
Consider `CO[C@H]1C2=CC(C2)[C@H](C)CS(=O)(=O)NC(=O)c2ccc3c(c2)N(C[C@@H]2CC[C@H]21)C[C@@]1(CCCc2cc(Cl)ccc21)CO3` (single isomer, unassigned) [Cpd. No. 14 (Isomer 2)], for which the half-maximal inhibitory concentration (IC50) in experiment [1] was 11 nM; in the experiment on OPM-2 cells (24 h), 1310 nM; in the experiment with NCI-H929 cells (24 h), 150 nM.
For the compound `CO[C@@]1(CN2CCN3CCOC[C@@H]3C2)C2=C[C@@H](C2)[C@H](C)[C@@H](C)S(=O)(=O)NC(=O)c2ccc3c(n2)N(C[C@@H]2CC[C@H]21)C[C@@]1(CCCc2c1ccc(Cl)c2F)CO3` [compound 54, (1S,11′R,12′S,13′R,16′R,16a′R,18a′R,E)-6-chloro-5-fluoro-16′-(((S)-hexahydropyrazino[2,1-c][1,4]oxazin-8(1H)-yl)methyl)-16′-methoxy-11′,12′-dimethyl-3,4,12′,13′,16′,16a′,17′,18′,18a′,19′-decahydro-1′H,2H,3′H, 11′H-spiro[naphthalene-1,2′-[5,7]etheno[13,15]methanocyclobuta[i][1,4]oxazepino[3,4-f][1]thia[2,5,7]triazacyclohexadecin]-8′(9′H)-one 10′,10′-dioxide], the IC50 in experiment [1] amounted to 15 nM; in the experiment with OPM-2 cells (Homo sapiens, OPM-2, 24 h) it was 56 nM; with NCI-H929 cells (Homo sapiens, NCI-H929, 24 h), 4.9 nM.
`C[C@@H]1[C@@H](C)S(=O)(=O)NC(=O)c2ccc3c(c2)N(C[C@@H]2CC[C@H]2[C@@H](OCCN2CCNC(=O)C2)C2=C[C@H]1C2)C[C@@]1(CCCc2c1ccc(Cl)c2F)CO3` [compound 85, (1S,11′R,12′S,13′R,16′R,16a′R,18a′R,E)-6-chloro-5-fluoro-11′,12′-dimethyl-16′-(2-(3-oxopiperazin-1-yl)ethoxy)-3,4,12′,13′,16′,16a′,17′,18′,18a′,19′-decahydro-1′H,2H,3′H, 11′H-spiro[naphthalene-1,2′-[5,7]etheno[13,15]methanocyclobuta[i][1,4]oxazepino[3,4-f][1]thia[2,7]diazacyclohexadecin]-8′(9′H)-one 10′,10′-dioxide]: the IC50 in experiment [1] was determined as 20 nM; with OPM-2 cells (Homo sapiens, OPM-2, 24 h), 124 nM; in the experiment with NCI-H929 cells (Homo sapiens, NCI-H929, 24 h) it was 73 nM.
